Assay results published in patent US20260217735A1, “HETEROCYCLES AND USES THEREOF” (Kumquat Biosciences Inc., priority 2023, published 2026).

What was measured:
[1] = target: T1, KRAS G12D (Homo sapiens, UniProt P01116, G12D); experiment: HTRF assay, KRAS G12D interaction with SOS1; assay type: biochemical; details: bins <500 nM / 500 nM to 1000 nM, read-out: Inhibition of KRAS G12D (IC50)
T1 construct: made in house; host or cells: E. coli, e.g. BL21 (DE3)

[2] = test system: MiaPaca2 cells; experiment: Ras cellular assay, growth of cells with K-Ras G12C mutation; assay type: cell-based; details: Homo sapiens, MIA PaCa-2; cell proliferation assay; bins ≤500 nM / >500 nM; read-out: Inhibition of MiaPaca2 Cells (IC50)
In short: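 Anchorage-independent growth: G12C-mutant MIA PaCa-2 plated in soft agar, time-zero plate read the next day when compound was dosed (final DMSO 0.3%). After growth to day 10, MTS-type absorbance at 490/660 nm relative to time zero gave IC50 via four-parameter fitting.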

[3] = target: T2, KRAS G12S (Homo sapiens, UniProt P01116, G12S); experiment: HTRF assay, KRAS G12S interaction with SOS1; assay type: biochemical; details: bins <500 nM / 500 nM to 1000 nM, read-out: Inhibition of KRAS G12S (IC50)
T2 construct: made in house; host or cells: E. coli, e.g. BL21 (DE3)
T2 sequence (P01116 1-188 isoform P01116-2 G12S): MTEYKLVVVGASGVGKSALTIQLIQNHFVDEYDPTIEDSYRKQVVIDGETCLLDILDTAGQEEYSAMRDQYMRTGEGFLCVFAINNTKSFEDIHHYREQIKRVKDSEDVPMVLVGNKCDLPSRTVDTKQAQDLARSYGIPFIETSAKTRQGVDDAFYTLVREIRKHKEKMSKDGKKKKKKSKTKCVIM

[4] = target: T3, KRAS G12V (Homo sapiens, UniProt P01116, G12V); experiment: HTRF assay, KRAS G12V interaction with SOS1; assay type: biochemical; details: bins <500 nM / 500 nM to 1000 nM, read-out: Inhibition of KRAS G12V (IC50)
T3 construct: made in house; host or cells: E. coli, e.g. BL21 (DE3)
T3 sequence (P01116 1-188 isoform P01116-2 G12V): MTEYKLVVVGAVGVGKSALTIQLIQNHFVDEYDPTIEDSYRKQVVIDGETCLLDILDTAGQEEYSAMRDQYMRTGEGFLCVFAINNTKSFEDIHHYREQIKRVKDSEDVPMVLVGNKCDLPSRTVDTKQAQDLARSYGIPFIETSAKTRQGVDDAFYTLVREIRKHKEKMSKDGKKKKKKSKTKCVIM

[5] = target: T4, KRAS WT (Homo sapiens, UniProt P01116); experiment: HTRF assay, wildtype KRAS interaction with SOS1; assay type: biochemical; details: bins <500 nM / 500 nM to 1000 nM, read-out: Inhibition of KRAS WT (IC50)
T4 construct: made in house; host or cells: E. coli, e.g. BL21 (DE3)
T4 sequence (P01116 1-188 isoform P01116-2): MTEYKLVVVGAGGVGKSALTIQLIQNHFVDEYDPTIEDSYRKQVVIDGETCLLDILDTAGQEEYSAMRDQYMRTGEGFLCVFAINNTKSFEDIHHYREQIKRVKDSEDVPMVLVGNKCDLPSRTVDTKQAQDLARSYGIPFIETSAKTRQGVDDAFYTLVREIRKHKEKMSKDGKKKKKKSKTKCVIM

T1 sequence (P01116 1-188 isoform P01116-2 G12D): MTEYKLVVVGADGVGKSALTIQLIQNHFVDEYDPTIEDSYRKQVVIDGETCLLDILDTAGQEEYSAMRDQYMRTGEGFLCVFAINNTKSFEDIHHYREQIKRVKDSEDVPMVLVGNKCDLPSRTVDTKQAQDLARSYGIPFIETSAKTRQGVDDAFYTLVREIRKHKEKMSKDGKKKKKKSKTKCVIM

Row | IC50 [1] [nM] | IC50 [2] [nM] | IC50 [3] [nM] | IC50 [4] [nM] | IC50 [5] [nM] | Compound
1 | < 500 | ≤ 500 | < 500 | < 500 | < 500 | CCN(c1nc(OC[C@@]23CCCN2C[C@H](F)C3)nc2c(F)c(-c3ccc(F)c4sc(N)c(C#N)c34)c(C(F)(F)F)cc12)[C@@H]1CCN(C(=O)n2cc(C)nc2Cl)[C@@H]1C [Compound 162, 2-amino-4-(4-(((2R,3R)-1-(2-chloro-4-methyl-1H-imidazole-1-carbonyl)-2-methylpyrrolidin-3-yl)(ethyl)amino)-8-fluoro-2-(((2R,7aS)-2-fluorotetrahydro-1H-pyrrolizin-7a(5H)-yl)methoxy)-6-(trifluoromethyl)quinazolin-7-yl)-7-fluorobenzo[b]thiophene-3-carbonitrile]
2 | < 500 | ≤ 500 | < 500 | < 500 | < 500 | CC[C@@H]1[C@H](N(C)c2nc(OC[C@@]34CCCN3C[C@H](F)C4)nc3c(F)c(-c4ccc(F)c5sc(N)c(C#N)c45)c(Cl)cc23)CCN1C(=O)n1ccnc1 [Compound 198, 2-amino-4-(6-chloro-4-(((2R,3R)-2-ethyl-1-(1H-imidazole-1-carbonyl)pyrrolidin-3-yl)(methyl)amino)-8-fluoro-2-(((2R,7aS)-2-fluorotetrahydro-1H-pyrrolizin-7a(5H)-yl)methoxy)quinazolin-7-yl)-7-fluorobenzo[b]thiophene-3-carbonitrile]
3 | < 500 | ≤ 500 | < 500 | < 500 | < 500 | CCN(c1nc(OC[C@@]23CCCN2C[C@@]2(CC2(F)F)C3)nc2c(F)c(-c3ccc(F)c4sc(N)c(C#N)c34)c(C(F)(F)F)cc12)[C@@H]1CCN(C(=O)n2cnc(F)n2)[C@@H]1C [Compound 212, 2-amino-4-(2-(((1S,7a′S)-2,2-difluorodihydro-1′H,3′H-spiro[cyclopropane-1,2′-pyrrolizin]-7a′(5′H)-yl)methoxy)-4-(ethyl((2R,3R)-1-(3-fluoro-1H-1,2,4-triazole-1-carbonyl)-2-methylpyrrolidin-3-yl)amino)-8-fluoro-6-(trifluoromethyl)quinazolin-7-yl)-7-fluorobenzo[b]thiophene-3-carbonitrile]
4 | < 500 | ≤ 500 | < 500 | < 500 | < 500 | CN(c1nc(OC[C@@]23CCCN2C[C@H](F)C3)nc2c(F)c(-c3ccc(F)c4sc(N)c(C#N)c34)c(Cl)cc12)[C@H]1CCN(C(=O)n2ccnc2)C1 [Compound 218, 4-(4-(((S)-1-(1H-imidazole-1-carbonyl)pyrrolidin-3-yl)(methyl)amino)-6-chloro-8-fluoro-2-(((2R,7aS)-2-fluorotetrahydro-1H-pyrrolizin-7a(5H)-yl)methoxy)quinazolin-7-yl)-2-amino-7-fluorobenzo[b]thiophene-3-carbonitrile]
5 | < 500 | ≤ 500 | < 500 | < 500 | < 500 | C[C@@H]1[C@H](N(C)c2nc(OC[C@@]34CCCN3C[C@H](F)C4)nc3c(F)c(-c4ccc(F)c5sc(N)c(C#N)c45)c(Cl)cc23)CCN1C(=O)n1ccnc1C#N [Compound 176, 1-((2R,3R)-3-((7-(2-amino-3-cyano-7-fluorobenzo[b]thiophen-4-yl)-6-chloro-8-fluoro-2-(((2R,7aS)-2-fluorotetrahydro-1H-pyrrolizin-7a(5H)-yl)methoxy)quinazolin-4-yl)(methyl)amino)-2-methylpyrrolidine-1-carbonyl)-1H-imidazole-2-carbonitrile]
6 | < 500 | ≤ 500 | < 500 | < 500 | < 500 | CCN(c1nc(OC[C@@]23CCCN2C[C@H](F)C3)nc2c(F)c(-c3ccc(F)c4sc(N)c(C#N)c34)c(C(F)(F)F)cc12)[C@@H]1CCN(C(=O)n2cnc(C#N)c2C)[C@@H]1C [Compound 139, 1-((2R,3R)-3-((7-(2-amino-3-cyano-7-fluorobenzo[b]thiophen-4-yl)-8-fluoro-2-(((2R,7aS)-2-fluorotetrahydro-1H-pyrrolizin-7a(5H)-yl)methoxy)-6-(trifluoromethyl)quinazolin-4-yl)(ethyl)amino)-2-methylpyrrolidine-1-carbonyl)-5-methyl-1H-imidazole-4-carbonitrile]
7 | < 500 | ≤ 500 | < 500 | < 500 | < 500 | CC1C(N(C)c2nc(OC[C@@]34CCCN3C[C@H](F)C4)nc3c(F)c(-c4ccc(F)c5sc(N)c(C#N)c45)c(Cl)cc23)CCN1C(=O)n1cnc(F)n1 (stereo partly drawn) [Compound 160, 2-amino-4-(6-chloro-8-fluoro-4-((1-(3-fluoro-1H-1,2,4-triazole-1-carbonyl)-2-methylpyrrolidin-3-yl)(methyl)amino)-2-(((2R,7aS)-2-fluorotetrahydro-1H-pyrrolizin-7a(5H)-yl)methoxy)quinazolin-7-yl)-7-fluorobenzo[b]thiophene-3-carbonitrile]
8 | < 500 | ≤ 500 | < 500 | < 500 | < 500 | Cc1cn(C(=O)N2CC(CN(C)c3nc(OC[C@@]45CCCN4C[C@H](F)C5)nc4c(F)c(-c5ccc(F)c6sc(N)c(C#N)c56)c(Cl)cc34)(C(F)F)C2)cn1 [Compound 156, 2-amino-4-(6-chloro-4-(((3-(difluoromethyl)-1-(4-methyl-1H-imidazole-1-carbonyl)azetidin-3-yl)methyl)(methyl)amino)-8-fluoro-2-(((2R,7aS)-2-fluorotetrahydro-1H-pyrrolizin-7a(5H)-yl)methoxy)quinazolin-7-yl)-7-fluorobenzo[b]thiophene-3-carbonitrile]
9 | < 500 | ≤ 500 | < 500 | < 500 | < 500 | CCN(c1nc(OC[C@@]23CCCN2C[C@H](F)C3)nc2c(F)c(-c3ccc(F)c4sc(N)c(C#N)c34)c(Cl)cc12)[C@@H]1CCN(C(=O)n2cnc(C)c2C)[C@@H]1C [Compound 145, 2-amino-4-(6-chloro-4-(((2R,3R)-1-(4,5-dimethyl-1H-imidazole-1-carbonyl)-2-methylpyrrolidin-3-yl)(ethyl)amino)-8-fluoro-2-(((2R,7aS)-2-fluorotetrahydro-1H-pyrrolizin-7a(5H)-yl)methoxy)quinazolin-7-yl)-7-fluorobenzo[b]thiophene-3-carbonitrile]
10 | < 500 | ≤ 500 | < 500 | < 500 | < 500 | Cc1ncn(C(=O)N2CC3CCN(c4nc(OC[C@@]56CCCN5C[C@H](F)C6)nc5c(F)c(-c6ccc(F)c7sc(N)c(C#N)c67)c(Cl)cc45)C3C2)c1C (stereo partly drawn) [Compound 140, 2-amino-4-(6-chloro-4-(5-(4,5-dimethyl-1H-imidazole-1-carbonyl)hexahydropyrrolo[3,4-b]pyrrol-1(2H)-yl)-8-fluoro-2-(((2R,7aS)-2-fluorotetrahydro-1H-pyrrolizin-7a(5H)-yl)methoxy)quinazolin-7-yl)-7-fluorobenzo[b]thiophene-3-carbonitrile]
11 | < 500 | ≤ 500 | < 500 | < 500 | < 500 | CCN(c1nc(OC[C@@]23CCCN2C[C@H](F)C3)nc2c(F)c(-c3ccc(F)c4sc(N)c(C#N)c34)c(I)cc12)[C@@H]1CCN(C(=O)n2cc(C)nc2C)[C@@H]1C [Compound 184, 2-amino-4-(4-(((2R,3R)-1-(2,4-dimethyl-1H-imidazole-1-carbonyl)-2-methylpyrrolidin-3-yl)(ethyl)amino)-8-fluoro-2-(((2R,7aS)-2-fluorotetrahydro-1H-pyrrolizin-7a(5H)-yl)methoxy)-6-iodoquinazolin-7-yl)-7-fluorobenzo[b]thiophene-3-carbonitrile]
12 | < 500 | ≤ 500 | < 500 | < 500 | < 500 | C[C@@H]1[C@H](N(C)c2nc(OC[C@@]34CCCN3C[C@H](F)C4)nc3c(F)c(-c4ccc(F)c5sc(N)c(C#N)c45)c(Cl)cc23)CCN1C(=O)n1cnc(C2CC2)c1 [Compound 135, 2-amino-4-(6-chloro-4-(((2R,3R)-1-(4-cyclopropyl-1H-imidazole-1-carbonyl)-2-methylpyrrolidin-3-yl)(methyl)amino)-8-fluoro-2-(((2R,7aS)-2-fluorotetrahydro-1H-pyrrolizin-7a(5H)-yl)methoxy)quinazolin-7-yl)-7-fluorobenzo[b]thiophene-3-carbonitrile]
13 | < 500 | ≤ 500 | < 500 | < 500 | < 500 | Cc1cn(C(=O)N2CC3(CCCCN(c4nc(OC[C@@]56CCCN5C[C@H](F)C6)nc5c(F)c(-c6ccc(F)c7sc(N)c(C#N)c67)c(Cl)cc45)C3)C2)cn1 [Compound 164, 2-amino-4-(6-chloro-8-fluoro-2-(((2R,7aS)-2-fluorotetrahydro-1H-pyrrolizin-7a(5H)-yl)methoxy)-4-(2-(4-methyl-1H-imidazole-1-carbonyl)-2,6-diazaspiro[3.6]decan-6-yl)quinazolin-7-yl)-7-fluorobenzo[b]thiophene-3-carbonitrile]
